The target of one test is T1, C-RAF (Homo sapiens, UniProt P04049, Y340E/Y341E).
T1 construct: His tag (implied by nickel chromatography) (cleaved yes); StrepII tag (cleaved yes); made in house; host or cells: Sf9 insect cells (baculovirus), CRAF and h14-3-3 zeta co-expressed; MEK1 substrate from E. coli
In words: In vitro Raf activity determination (Alpha Screen, biotinylated kinase-dead MEK1 substrate), C-Raf. Format: biochemical. The following applies: c-Raf approximately 4 nM; ATP 1 μM; pre-incubation 60 minutes; reaction 1 hour at room temperature. In a few lines:
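AlphaScreen read-out of MEK phosphorylation using an anti-phospho-MEK1/2 antibody after a 1 hour room-temperature reaction at 1 μM ATP. Enzyme: approximately 4 nM Sf9-expressed full-length activated C-Raf (Y340E/Y341E, with 14-3-3ζ) on approximately 10 nM biotinylated K97R MEK1, after 60 min compound preincubation. IC50 by non-linear fit.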

A further test addresses T2, b-Raf (V600E) (Homo sapiens, UniProt P15056, V600E).
T2 construct: made in house
As to the kind of experiment: In vitro Raf activity determination (Alpha Screen, biotinylated kinase-dead MEK1 substrate), B-Raf. It is filed as biochemical. The settings on record: b-Raf (V600E) approximately 4 pM; ATP 10 μM; pre-incubation 60 minutes; reaction 3 hours at room temperature. In a few lines:
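IC50 from non-linear regression of AlphaScreen phospho-MEK signal (anti-p-MEK1/2 antibody). b-Raf(V600E), about 4 pM, phosphorylated ~10 nM biotinylated K97R MEK1 with 10 μM ATP for 3 h at room temperature after 60 min compound pre-incubation; buffer pH 7.5 Tris, 15 mM MgCl2, 1 mM DTT.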

Molecules are shown by their SMILES. pIC50: −log10 of the molar value.

The pIC50 is the IC50 on a negative log10 scale, so that one unit is a factor of ten. Read a low pIC50 as a high IC50.

T1 sequence (P04049 whole entry Y340E/Y341E): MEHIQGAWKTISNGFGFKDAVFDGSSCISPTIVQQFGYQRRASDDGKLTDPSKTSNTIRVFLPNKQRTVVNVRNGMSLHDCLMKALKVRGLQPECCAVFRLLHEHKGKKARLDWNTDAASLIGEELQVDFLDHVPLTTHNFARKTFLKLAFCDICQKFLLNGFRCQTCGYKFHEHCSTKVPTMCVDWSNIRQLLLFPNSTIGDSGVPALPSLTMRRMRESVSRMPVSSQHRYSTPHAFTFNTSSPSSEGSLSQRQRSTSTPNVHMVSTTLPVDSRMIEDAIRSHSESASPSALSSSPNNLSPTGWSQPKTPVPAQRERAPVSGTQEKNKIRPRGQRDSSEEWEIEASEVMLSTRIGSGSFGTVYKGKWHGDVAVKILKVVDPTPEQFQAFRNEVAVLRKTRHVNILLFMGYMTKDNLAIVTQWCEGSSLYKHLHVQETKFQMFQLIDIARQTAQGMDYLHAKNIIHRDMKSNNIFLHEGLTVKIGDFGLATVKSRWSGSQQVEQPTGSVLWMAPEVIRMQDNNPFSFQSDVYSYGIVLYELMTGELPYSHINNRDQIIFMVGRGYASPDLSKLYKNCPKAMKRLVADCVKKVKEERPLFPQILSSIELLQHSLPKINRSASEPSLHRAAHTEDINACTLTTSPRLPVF
T1 sequence (P63104 whole entry partner): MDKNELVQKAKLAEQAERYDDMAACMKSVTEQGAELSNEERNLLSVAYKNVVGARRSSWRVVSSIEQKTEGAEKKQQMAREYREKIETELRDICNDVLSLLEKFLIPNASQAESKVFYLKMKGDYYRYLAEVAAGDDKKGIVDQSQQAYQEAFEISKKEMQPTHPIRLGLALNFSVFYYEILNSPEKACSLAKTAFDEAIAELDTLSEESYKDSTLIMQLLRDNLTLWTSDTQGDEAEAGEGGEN
T2 sequence (P15056 whole entry V600E): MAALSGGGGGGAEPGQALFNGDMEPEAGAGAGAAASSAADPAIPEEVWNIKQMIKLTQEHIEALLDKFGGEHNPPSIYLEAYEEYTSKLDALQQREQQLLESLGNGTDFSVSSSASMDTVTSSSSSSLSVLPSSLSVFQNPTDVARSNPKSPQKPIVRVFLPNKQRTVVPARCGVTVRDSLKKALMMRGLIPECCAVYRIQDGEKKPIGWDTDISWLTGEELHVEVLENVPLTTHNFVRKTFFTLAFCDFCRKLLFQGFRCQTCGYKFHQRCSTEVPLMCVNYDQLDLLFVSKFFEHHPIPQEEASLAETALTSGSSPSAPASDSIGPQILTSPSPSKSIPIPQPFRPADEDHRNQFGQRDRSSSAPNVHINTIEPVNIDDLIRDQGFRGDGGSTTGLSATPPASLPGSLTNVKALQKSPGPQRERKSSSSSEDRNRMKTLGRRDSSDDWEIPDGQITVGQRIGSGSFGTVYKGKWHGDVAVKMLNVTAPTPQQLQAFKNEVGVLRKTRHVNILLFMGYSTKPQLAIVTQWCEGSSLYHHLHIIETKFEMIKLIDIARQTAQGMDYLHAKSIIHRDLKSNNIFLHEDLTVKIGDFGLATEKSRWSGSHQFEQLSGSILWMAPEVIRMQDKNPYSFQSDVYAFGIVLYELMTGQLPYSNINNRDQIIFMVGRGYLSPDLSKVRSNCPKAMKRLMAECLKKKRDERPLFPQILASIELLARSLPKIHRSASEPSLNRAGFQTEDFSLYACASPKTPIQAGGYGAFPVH

Take `CCn1cc(C(=O)Nc2ccc(C)c(-c3cnc(N(C)C)c(C#N)c3)c2)cc(C(F)(F)F)c1=O` [Example 250, N-(3-(5-cyano-6-(dimethylamino)pyridin-3-yl)-4-methylphenyl)-1-ethyl-6-oxo-5-(trifluoromethyl)-1,6-dihydropyridine-3-carboxamide]: the pIC50 against C-RAF was 9.40; against b-Raf (V600E), 8.71.
Turning to `CNc1ncc(-c2cc(NC(=O)c3ccnc(C(C)(C)C#N)c3)ccc2C)cc1C#N` [Example 6, N-(3-(5-cyano-6-(methylamino)pyridin-3-yl)-4-methylphenyl)-2-(2-cyanopropan-2-yl)isonicotinamide], the figures for the pIC50 at C-RAF and at b-Raf (V600E) were 9.42 and 8.66, respectively.
Taken in the same sequence, the figures for `Cc1ncc(NC(=O)c2ccnc(C(C)(C)O)c2)cc1-c1cnc(C2CCOCC2)c(C#N)c1` [Example 167, N-(5′-cyano-2-methyl-6′-(tetrahydro-2H-pyran-4-yl)-[3,3′-bipyridin]-5-yl)-2-(2-hydroxypropan-2-yl)isonicotinamide] were 8.16 and 7.48.
Consider `Cc1ccc(NC(=O)c2ccnc(C(F)(F)F)c2)cc1-c1cnc(N2CCOCC2)c(C#N)c1` [Example 62, N-(3-(5-cyano-6-morpholinopyridin-3-yl)-4-methylphenyl)-2-(trifluoromethyl) isonicotinamide], for which the negative logarithm of the IC50 (pIC50) at C-RAF is 9.80; against b-Raf (V600E) it was 9.32.
Taken in the same sequence, the figures for `Cc1ccc(NC(=O)c2cccc(C(F)(F)F)c2)cc1-c1cncc(C#N)c1` [Example 34, N-(3-(5-cyanopyridin-3-yl)-4-methylphenyl)-3-(trifluoromethyl) benzamide] were 9.21 and 8.41.
Taken in the same sequence, the figures for `Cc1ncc(NC(=O)c2ccnc(C3CC3)c2)cc1-c1cnc(C2CCOCC2)c(C#N)c1` [Example 131, N-(5′-cyano-2-methyl-6′-(tetrahydro-2H-pyran-4-yl)-[3,3′-bipyridin]-5-yl)-2-cyclopropyl-isonicotinamide] were 9.13 and 8.37.

(Values after patent US10392404B2, “Compounds and compositions as kinase inhibitors” (NOVARTIS AG, priority 2014, dated 2019).)
